Experimental data published in patent publication US8163737B2 (Vertex Pharmaceuticals Incorporated, priority 2006, dated 2012).
pIC50, pKi: −log10 of the molar value.

Molecular target: T1, CGRP receptor (SK-N-MC membrane) (Homo sapiens, UniProt O60894+Q16602)
T1 construct: Purified SK-N-MC membrane was purchased from Perkin Elmer; purchased Perkin Elmer; host or cells: SK-N-MC membrane
Assay: I125-CGRP binding displacement assay on purified SK-N-MC membrane
Conditions: not given
Method: Purified SK-N-MC membrane was purchased from Perkin Elmer. The membrane was thawed quickly and placed on ice. The compounds were diluted with CGRP binding solution (25 mM Tris-HCl, pH7.4, 5 mM MgCl2, 0.1% BSA and 0.05% Tween). The membrane was diluted 1:20 with the binding solution and homogenized with Tissue Matster-50 Homogenizer (Omni International) for 30 sec. The homogenized membrane was added to compounds in the binding solution. […] After 2 hour incubation at room temperature, the reaction was stopped by rapid filtration through 0.5% PEI treated GF/C filter plate (Perkin Elmer) and the filter plate was washed with ice-cold washing solution (50 mM Tris HCl, pH7.4, 5 mM MgCl2 and 0.1% BSA) using cell harvestor (Tomtec). The radioactivity of the filter plates were read on Topcount (Packard). The nonspecific binding was determined in the control reaction where 1 uM unlabelled CGRP was preincubated with the membrane prior to I125-CGRP addition. The total binding was determined in the control reaction of the membrane and I125-CGRP in the absence of compound. The percent displacement of I125-CGRP with compounds was calculated using nonspecific and total binding controls. The curve fitting was carried out using MOD3.

T1 sequence (Q16602 23-461): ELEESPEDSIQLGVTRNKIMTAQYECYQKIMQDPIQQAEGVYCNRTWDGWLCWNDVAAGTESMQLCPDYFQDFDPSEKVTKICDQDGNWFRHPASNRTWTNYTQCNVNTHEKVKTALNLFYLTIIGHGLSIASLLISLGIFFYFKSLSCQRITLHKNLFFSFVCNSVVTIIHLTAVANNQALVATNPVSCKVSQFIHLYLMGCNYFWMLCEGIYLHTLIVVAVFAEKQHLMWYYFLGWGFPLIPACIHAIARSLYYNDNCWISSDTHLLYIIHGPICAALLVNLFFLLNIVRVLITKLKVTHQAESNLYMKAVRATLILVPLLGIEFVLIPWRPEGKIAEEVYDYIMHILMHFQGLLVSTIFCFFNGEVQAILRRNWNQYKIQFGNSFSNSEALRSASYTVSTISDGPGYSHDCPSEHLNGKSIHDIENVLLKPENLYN
T1 sequence (O60894 27-148): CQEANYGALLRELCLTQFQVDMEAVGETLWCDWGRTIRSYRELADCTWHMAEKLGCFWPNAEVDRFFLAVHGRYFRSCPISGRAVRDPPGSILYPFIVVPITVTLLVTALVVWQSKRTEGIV

SMILES | pKi
CN(c1ccccc1C1SC(CC(=O)N2CCC(N3CCc4ccccc4NC3=O)CC2)C(=O)N1CCC(C)(C)C)[C@H]1CCN(Cc2ccccc2)C1 (some centres unmarked) [Compound 403] | > 6.00
N#Cc1ccccc1C1SC(CC(=O)N2CCC(N3Cc4ccccc4NC3=O)CC2)C(=O)N1CC1CCCCC1 (centres unmarked) [Compound 265] | > 6.00
CC(C)N1CCN(c2c(F)cccc2C2SC(CC(=O)N3CCC(n4c(=O)[nH]c5ncccc54)CC3)C(=O)N2CCC(C)(C)C)CC1 (centres unmarked) [Compound 341] | > 6.00
CC(C)N1CCN(c2c(F)cccc2[C@@H]2S[C@@](C)(CC(=O)N3CCC(N4CCc5ccccc5NC4=O)CC3)C(=O)N2CCC(C)(C)C)CC1 [Compound 431] | > 6.00
COCCN1C(=O)C(CC(=O)N2CCC(N3Cc4ccccc4NC3=O)CC2)SC1c1ccccc1 (centres unmarked) [Compound 30] | > 6.00
CC(C)CCN1C(=O)C(CC(=O)N2CCC(N3Cc4ccccc4NC3=O)CC2)SC12CCSCC2 (centres unmarked) [Compound 84] | > 6.00
CC(C)CCN1C(=O)C(CC(=O)N2CCC(N3Cc4ccccc4NC3=O)CC2)SC1C1CCCC1 (centres unmarked) [Compound 188] | > 6.00
CC(C)(C)N1CCN(c2c(F)cccc2[C@H]2S[C@@H](CC(=O)N3CCC(N4CCc5ccccc5NC4=O)CC3)C(=O)N2Cc2ccccc2)CC1 [Compound 547] | > 6.00
CC(C)(C)CCN1C(=O)[C@H](CC(=O)N2CCC(N3CCc4ccccc4NC3=O)CC2)SC1c1cccc(F)c1C1CCN(C2CCC2)CC1 (some centres unmarked) [Compound 558] | > 6.00
CC(C)(C)CCN1C(=O)[C@H](CC(=O)N2CCC(N3CCc4ccccc4NC3=O)CC2)SC1c1cccc(F)c1N1CCC(c2ccncc2)CC1 (some centres unmarked) [Compound 557] | > 6.00
CC(C)CCN1C(=O)C(CC(=O)N2CCC(n3c(=O)[nH]c4ccccc43)CC2)S[C@H]1c1ccccc1N1CCC(O)CC1 (some centres unmarked) [Compound 304] | > 6.00
CN(C)[C@H]1CCN(c2ccccc2C2SC(CC(=O)N3CCC(n4c(=O)[nH]c5ncccc54)CC3)C(=O)N2CCC(C)(C)C)C1 (some centres unmarked) [Compound 406] | > 6.00

Molecular target: endogenous CGRP receptor (Homo sapiens, UniProt O60894+Q16602)
Sequence (Q16602 23-461): as the sequence (Q16602 23-461) above
Sequence (O60894 27-148): as the sequence (O60894 27-148) above
Assay: CGRP functional antagonism using SK-N-MC-BLA (4C10), β-lactamase transcriptional reporter assay
Format: cell-based
Conditions: SK-N-MC (4C10) cells, inhibition of β-lactamase expression in the presence of 200 pM CGRP

SMILES | pIC50
CN(c1ccccc1C1SC(CC(=O)N2CCC(N3CCc4ccccc4NC3=O)CC2)C(=O)N1CCC(C)(C)C)[C@H]1CCN(Cc2ccccc2)C1 (some centres unmarked) [Compound 403] | 5.30 to 6.00
N#Cc1ccccc1C1SC(CC(=O)N2CCC(N3Cc4ccccc4NC3=O)CC2)C(=O)N1CC1CCCCC1 (centres unmarked) [Compound 265] | > 6.00
CC(C)N1CCN(c2c(F)cccc2C2SC(CC(=O)N3CCC(n4c(=O)[nH]c5ncccc54)CC3)C(=O)N2CCC(C)(C)C)CC1 (centres unmarked) [Compound 341] | > 6.00
CC(C)N1CCN(c2c(F)cccc2[C@@H]2S[C@@](C)(CC(=O)N3CCC(N4CCc5ccccc5NC4=O)CC3)C(=O)N2CCC(C)(C)C)CC1 [Compound 431] | > 6.00
COCCN1C(=O)C(CC(=O)N2CCC(N3Cc4ccccc4NC3=O)CC2)SC1c1ccccc1 (centres unmarked) [Compound 30] | 5.30 to 6.00
CC(C)CCN1C(=O)C(CC(=O)N2CCC(N3Cc4ccccc4NC3=O)CC2)SC12CCSCC2 (centres unmarked) [Compound 84] | > 6.00
CC(C)CCN1C(=O)C(CC(=O)N2CCC(N3Cc4ccccc4NC3=O)CC2)SC1C1CCCC1 (centres unmarked) [Compound 188] | > 6.00
CC(C)(C)N1CCN(c2c(F)cccc2[C@H]2S[C@@H](CC(=O)N3CCC(N4CCc5ccccc5NC4=O)CC3)C(=O)N2Cc2ccccc2)CC1 [Compound 547] | > 6.00
CN(C)C1CCN(c2c(F)cccc2[C@H]2S[C@@H](CC(=O)N3CCC(n4c(=O)[nH]c5ncccc54)CC3)C(=O)N2CCC(C)(C)C)C1 (some centres unmarked) [Compound 455] | 5.30 to 6.00
CN1CCC(N2CCN(c3ccccc3C3SC(CC(=O)N4CCC(N5CCc6ccccc6NC5=O)CC4)C(=O)N3CCC(C)(C)C)CC2)CC1 (centres unmarked) [Compound 379] | > 6.00
CC(C)(C)CCN1C(=O)[C@H](CC(=O)N2CCC(n3c(=O)[nH]c4ncccc43)CC2)S[C@H]1c1cccc(F)c1N1CCC(N)C1 (some centres unmarked) [Compound 465] | 5.30 to 6.00
CC(C)(C)CCN1C(=O)C(CC(=O)N2CCC(N3Cc4ccccc4NC3=O)CC2)SC1c1ccccc1F (centres unmarked) [Compound 252] | > 6.00
CC(C)(C)CCN1C(=O)[C@H](CC(=O)N2CCC(N3Cc4ccccc4NC3=O)CC2)S[C@H]1c1cccc(F)c1N1CCC(N)C1 (some centres unmarked) [Compound 472] | > 6.00
CC(C)CC(CO)N1C(=O)C(CC(=O)N2CCC(N3CCc4ccccc4NC3=O)CC2)SC1c1ccccc1 (centres unmarked) [Compound 214] | 5.30 to 6.00
CC(C)CCN1C(=O)C(CC(=O)N2CCC(N3Cc4ccccc4NC3=O)CC2)SC1CC(C)(C)C (centres unmarked) [Compound 276] | 5.30 to 6.00
CC(C)CCN1C(=O)C(CC(=O)N2CCC(N3Cc4ccccc4NC3=O)CC2)SC1c1ccc(C(C)(C)C)cc1 (centres unmarked) [Compound 197] | < 5.30
CC(C)CCN1C(=O)C(CC(=O)N2CCC(N3CCc4ccccc4NC3=O)CC2)SC1c1ccccc1N1CCCCC1 (centres unmarked) [Compound 215] | > 6.00
CN1CCN(c2ccccc2[C@@H]2SC(CC(=O)N3CCC(n4c(=O)[nH]c5ccccc54)CC3)C(=O)N2CCC(C)(C)C)CC1 (some centres unmarked) [Compound 161] | > 6.00
Cc1c(F)cccc1C1SC(CC(=O)N2CCC(N3Cc4ccccc4NC3=O)CC2)C(=O)N1CCC(C)C (centres unmarked) [Compound 267] | > 6.00
CC(C)CCN1C(=O)C(CC(=O)N2CCC(N3Cc4ccccc4NC3=O)CC2)SC12CCC(C(F)(F)F)CC2 (centres unmarked) [Compound 253] | 5.30 to 6.00
CC(C)CCN1C(=O)C(CC(=O)N2CCC(N3CCc4ccccc4NC3=O)CC2)SC1CCc1ccccc1 (centres unmarked) [Compound 262] | 5.30 to 6.00
CC(C)CCN1C(=O)C(CC(=O)N2CCC3(CC2)OC(=O)Nc2ccccc23)SC1c1ccccc1 (centres unmarked) [Compound 223] | < 5.30
CN1CCN(c2ccccc2[C@@H]2S[C@](C)(CC(=O)N3CCC(N4Cc5ccccc5NC4=O)CC3)C(=O)N2CCC(C)(C)C)CC1 [Compound 333] | 5.30 to 6.00
Cc1cccc(C)c1C1SC(CC(=O)N2CCC(N3CCc4ccccc4NC3=O)CC2)C(=O)N1CCC(C)C (centres unmarked) [Compound 123] | > 6.00
COC(=O)[C@@H](CC(C)C)N1C(=O)C(CC(=O)N2CCC(N3Cc4ccccc4NC3=O)CC2)SC1c1ccccc1 (some centres unmarked) [Compound 178] | 5.30 to 6.00
CN1CCN(c2ccccc2[C@H]2SC(CC(=O)N3CCC(n4c(=O)[nH]c5ncccc54)CC3)C(=O)N2CCC(C)(C)C)CC1 (some centres unmarked) [Compound 47] | > 6.00
CC(C)N1CCN(c2cccc(Cl)c2C2S[C@H](CC(=O)N3CCC(N4CCc5ccccc5NC4=O)CC3)C(=O)N2CCC(C)(C)C)CC1 (some centres unmarked) [Compound 433] | < 5.30

SMILES | pIC50
CC(C)CCN1C(=O)C(CC(=O)N2CCC(N3CCc4ccccc4NC3=O)CC2)SC1c1cccc(OC(F)(F)C(F)F)c1 (centres unmarked) [Compound 247] | 5.30 to 6.00
COc1ccc(C2SC(CC(=O)N3CCC(N4Cc5ccccc5NC4=O)CC3)C(=O)N2CCC(C)C)cc1OC (centres unmarked) [Compound 228] | 5.30 to 6.00
CC(C)(C)CCN1C(=O)C(CC(=O)N2CCC(N3CCc4ccccc4NC3=O)CC2)SC1c1ncc[nH]1 (centres unmarked) [Compound 314] | < 5.30
CC(C)CCN1C(=O)C(CC(=O)N2CCC3(CC2)CNC(=O)O3)SC1c1ccccc1 (centres unmarked) [Compound 261] | < 5.30
CC(C)(C)CCN1C(=O)C(CC(=O)N2CCC(N3CCc4ccccc4NC3=O)CC2)SC1c1cccc2cc[nH]c12 (centres unmarked) [Compound 277] | > 6.00
CC(C)CCN1C(=O)C(CC(=O)N2CCC(N3Cc4ccccc4NC3=O)CC2)SC1c1ccc(Br)cc1 (centres unmarked) [Compound 242] | 5.30 to 6.00
CN1CCN(c2c(F)cccc2C2SC(CC(=O)N3CCC(n4c(=O)[nH]c5ccccc54)CC3)C(=O)N2CCC(C)(C)C)CC1 (centres unmarked) [Compound 338] | > 6.00
CC(C)C[C@H](CO)N1C(=O)C(CC(=O)N2CCC(N3Cc4ccccc4NC3=O)CC2)SC1c1ccccc1 (some centres unmarked) [Compound 238] | 5.30 to 6.00
CCC(CC)C1SC(CC(=O)N2CCC(N3CCc4ccccc4NC3=O)CC2)C(=O)N1CCC(C)C (centres unmarked) [Compound 207] | > 6.00
CN1CCN(c2ccccc2C2SC(CC(=O)N3CCC(N4CCc5ccccc5NC4=O)CC3)C(=O)N2CCC(C)(C)C)CC1 (centres unmarked) [Compound 34] | > 6.00
CC(C)CCN1C(=O)C(CC(=O)N2CCC(N3Cc4ccccc4NC3=O)CC2)SC1c1ccc(Cl)cc1 (centres unmarked) [Compound 158] | 5.30 to 6.00
CN1CCN(c2ccccc2C2SC(CC(=O)N3CCC(N4Cc5cccnc5NC4=O)CC3)C(=O)N2CCC(C)(C)C)CC1 (centres unmarked) [Compound 320] | > 6.00
O=C(CC1SC(c2ccccc2)N(CC(F)(F)C(F)(F)F)C1=O)N1CCC(N2CCc3ccccc3NC2=O)CC1 (centres unmarked) [Compound 233] | > 6.00
CC(C)CCN1C(=O)C(CC(=O)N2CCC(N3Cc4ccccc4NC3=O)CC2)SC1c1ccc(S(C)(=O)=O)cc1 (centres unmarked) [Compound 5] | 5.30 to 6.00
CC(C)CCN1C(=O)C(CC(=O)N2CCC(n3c(=O)[nH]c4ncccc43)CC2)SC1c1ccccc1 (centres unmarked) [Compound 69] | > 6.00
CC(C)CCN1C(=O)C(CC(=O)N2CCC(n3c(=O)[nH]c4ncccc43)CC2)SC1c1ccccc1N1CCN(C)CC1 (centres unmarked) [Compound 59] | > 6.00
Cc1cc(C2SC(CC(=O)N3CCC(N4CCc5ccccc5NC4=O)CC3)C(=O)N2CCC(C)C)cc2cn[nH]c12 (centres unmarked) [Compound 206] | > 6.00
O=C(CC1SC(c2ccccc2)N(CCC(F)(F)F)C1=O)N1CCC(N2Cc3ccccc3NC2=O)CC1 (centres unmarked) [Compound 191] | > 6.00
O=C(CC1SC(c2cccc(F)c2F)N(CC2CCCCC2)C1=O)N1CCC(N2Cc3ccccc3NC2=O)CC1 (centres unmarked) [Compound 92] | > 6.00
O=C(CC1SC(c2ccc(F)cc2F)N(CC2CCCCC2)C1=O)N1CCC(N2Cc3ccccc3NC2=O)CC1 (centres unmarked) [Compound 137] | > 6.00
CC(C)N1CCN(c2cccc(Cl)c2C2S[C@@H](CC(=O)N3CCC(n4c(=O)[nH]c5ncccc54)CC3)C(=O)N2CCC(C)(C)C)CC1 (some centres unmarked) [Compound 438] | > 6.00
CCN(CC)CCN1C(=O)C(CC(=O)N2CCC(N3Cc4ccccc4NC3=O)CC2)SC1c1ccccc1 (centres unmarked) [Compound 82] | 5.30 to 6.00
CC(C)(C)CCN1C(=O)C(CC(=O)N2CCC(N3Cc4ccccc4NC3=O)CC2)SC1c1c(F)cccc1F (centres unmarked) [Compound 25] | > 6.00
CN1CCN(c2cccc(C3SC(CC(=O)N4CCC(N5CCc6ccccc6NC5=O)CC4)C(=O)N3CCC(C)(C)C)c2)CC1 (centres unmarked) [Compound 412] | > 6.00
O=C(CC1SC(c2ccccc2)N(CC(F)(F)C(F)(F)F)C1=O)N1CCC(N2Cc3ccccc3NC2=O)CC1 (centres unmarked) [Compound 36] | > 6.00
CC(C)(C)CCN1C(=O)[C@H](CC(=O)N2CCC(n3c(=O)[nH]c4ncccc43)CC2)S[C@H]1c1cccc(F)c1N1CCNCC1 [Compound 546] | > 6.00
